Measured values published in publication PMC3814572, “Identification of Novel Compounds Inhibiting Chikungunya Virus-Induced Cell Death by High Throughput Screening of a Kinase Inhibitor Library” (PLoS Neglected Tropical Diseases, 2013).
Read-outs that look alike come from different tables or passages of the source.

What was measured:
in vitro = details: human
CHIKV-118-GFP [1] = experiment: Resazurin reduction assay, dose-response of inhibition of CHIKV-associated cell death in HuH-7; details: for EC50: Chikungunya virus, Huh-7, 72 h; for SI (CC50/EC50): minimum SI based on the highest concentration of compound tested
HuH-7 cells [2] = details: human
CHIKV-118-GFP [3] = experiment: Image-based high-content assay of CHIKV-118-GFP infectivity in HuH-7; assay type: cell-based, Chikungunya virus; details: for percentage of infected cells / inhibition at 20 µM / inhibition at 50 µM: 24 hrs; for observed apoptotic blebs associated with CHIKV infection: 24 hpi; for inhibition at 20 µM / inhibition at 50 µM: Chikungunya virus, read-out: inhibition of CHIKV-118-GFP infection
[4] = Resazurin reduction assay, toxicity in MOCK-infected (non-infected) HuH-7; details: human
CHIKV-118-GFP [5] = experiment: Microneutralization assay (protection against CHIKV-induced CPE); details: 50 pfu CHIKV-118-GFP, 72 hrs, HuH-7
CHIKV-118-GFP [6] = experiment: Virus yield reduction assay (plaque assay of culture medium); details: 24 hrs, culture supernatant of HuH-7
Huh-7.5 cells = details: 10 µM, Huh-7.5, 72 hrs; cited from earlier work
DENV2 (BR DEN2 01-01) = details: 10 µM, Huh-7.5, 72 hrs; cited from earlier work
HuH-7 cells [7] = experiment: Cell number by DAPI-stained nuclei imaging in HuH-7; details: 50 µM
HuH-7 cells [8] = experiment: Resazurin reduction assay, toxicity in MOCK-infected (non-infected) HuH-7; details: HuH-7
[9] = read-out: EC50 (concentration showing 50% inhibition relative to the maximum inhibition achieved)

SMILES	EC50 (CHIKV-118-GFP [1])	EC50 (CHIKV-118-GFP [1]; [9])	SI (CC50/EC50) (CHIKV-118-GFP [1])	percentage of infected cells (CHIKV-118-GFP [3]; 20 µM)	CC50 at 72 h [4]	observed apoptotic blebs associated with CHIKV infection (CHIKV-118-GFP [3])	also measured
CO/C1=C\C(C)=C\[C@@H](C)[C@@H](O)[C@@H](C)C/C(C)=C/C=C/[C@H](OC)[C@@H]([C@@H](C)[C@@H](O)[C@H](C)[C@@]2(O)C[C@@H](O)[C@H](C)[C@@H](C(C)C)O2)OC1=O [BAF, Bafilomycin A1]	0.056 µM	–	–	–	–	–	CC50 (in vitro): 0.09 µM; CC50 (HuH-7 cells [2]): 0.237 µM
COc1ccc(-c2ccc(C(=O)NC(C)C)c3occc23)c(C)c1 [CND0335]	–	3.3 µM	>15	90.9%	> 50 µM	–	–
COc1ccc(-c2ccc(C(=O)Nc3ccc(C(C)C)cc3)c3occc23)c(C)c1 [CND0364]	–	6.2 µM	>8.1	80.3%	> 50 µM	significantly lower	lowest concentration that inhibited CHIKV-induced CPE (clearing of cell monolayer) (CHIKV-118-GFP [5]): 12.5 µM; inhibition at 20 µM (CHIKV-118-GFP [3]; 20 µM): 19.7%; log titer reduction vs DMSO vehicle control (CHIKV-118-GFP [6]; 20 µM): 1.69 log
COc1ccc(-c2coc3c(C(=O)Nc4cccnc4)cccc23)c(C)c1 [CND0366]	–	7.1 µM	>7.0	94.4%	> 50 µM	–	–
COc1ccc(-c2coc3c(C(=O)NC(C)C)cccc23)c(C)c1 [CND0415]	–	6.2 µM	>8.1	96.4%	> 50 µM	–	–
COc1cccc(Nc2cc3c(cn2)cc(-c2cccc(C(F)(F)F)c2)n3C)c1 [CND0545]	–	5.6 µM	>8.9	71.7%	> 50 µM	significantly lower	lowest concentration that inhibited CHIKV-induced CPE (clearing of cell monolayer) (CHIKV-118-GFP [5]): 25 µM; inhibition at 20 µM (CHIKV-118-GFP [3]; 20 µM): 28.3%; log titer reduction vs DMSO vehicle control (CHIKV-118-GFP [6]; 20 µM): 2.01 log
CC(C)c1ccc(NC(=O)c2csc(C(O)C(C)C)n2)cc1 (stereo not drawn) [CND3514]	–	2.2 µM	>22.7	92.2%	> 50 µM	–	toxicity in DENV2 screening (cell number) (Huh-7.5 cells): 39.37%; inhibition against DENV2 (DENV2 (BR DEN2 01-01)): 67.87%
CN(C)CCCN1c2ccccc2Sc2ccc(Cl)cc21 [CPZ, Chlorpromazine]	–	–	–	–	–	–	reduction of cell number (HuH-7 cells [7]; 24 hrs): 86%; reduction of cell number (HuH-7 cells [7]; 48 hrs): > 99.9%; reduction of cell number (HuH-7 cells [7]; 72 hrs): > 99.9%; reduction of cell number (HuH-7 cells [7]; 96 hrs): > 99.9%; fluorescence readout after resazurin treatment (HuH-7 cells [8]; 50 µM, 72 hpi): 240,842±14,730 RFU
CCN(CC)CCCC(C)Nc1ccnc2cc(Cl)ccc12 (stereo not drawn) [CQ, Chloroquine, reference compound]	29 µM	–	–	–	90 µM	still prominent	percentage of infected cells (CHIKV-118-GFP [3]; 50 µM): 24.4%; inhibition at 50 µM (CHIKV-118-GFP [3]; 50 µM): 75.6%; log titer reduction vs DMSO vehicle control (CHIKV-118-GFP [6]; 50 µM): 1.88 log
COc1c(C)c2c(c(O)c1C/C=C(\C)CCC(=O)O)C(=O)OC2 [MPA, Mycophenolic acid, reference compound]	1.6 µM	–	–	–	> 100 µM	significantly lower	percentage of infected cells (CHIKV-118-GFP [3]; 50 µM): 7.34%; inhibition at 50 µM (CHIKV-118-GFP [3]; 50 µM): > 92%; cytotoxicity at the highest concentration tested (HuH-7 cells [8]; 100 µM): no observable cytotoxicity
